Test results from US20240208954A1, “OXADIAZOLE COMPOUND, PREPARATION METHOD THEREFOR, PHARMACEUTICAL COMPOSITION AND USE THEREOF” (SHANGHAI INSTITUTE OF MATERIA MEDICA, CHINESE ACADEMY OF …, priority 2020, published 2024).
pEC50: −log10 of the molar value. Where two headings read alike, the source gives them in different places.

Tests used:
[1] = biological target: T1, S1PR1 (Homo sapiens, UniProt P21453); assay: Agonistic activity test on S1P receptors, FLIPR, CHO-K1/Ga15/EDG1 cells; type: cell-based; conditions: CHO-K1/Ga15/EDG1 cells, FLIPR agonist mode, read-out: S1PR1 EC50; for EC50: cells printed in μM
T1 construct: host or cells: CHO-K1 co-expressing Ga15
Procedure: (§1) Instrument: FLIPR™ TETRA (Molecular Device)
Experimental materials: CHO-K1/Ga15/EDG1 cells constructed by GenScript autonomously.
(§2) Sample processing: Before the experiment, the working solution with the corresponding concentration was prepared by diluting with GPCR dilution buffer.
(§3) After 18-20 hours, the cell culture plat was taken out and added with dye working solution, and then the plate was placed in a 37° C./5% CO2 incubator for 1 hour, and finally equilibrated at room temperature for 15 minutes. Positive agonist working solution was added, and RFU values were detected and recorded. […] The positive agonist working fluid was added to the cell culture plate at the 21st second. […] The antagonistic mode detection program, the overall detection time of the instrument was 120 seconds, and positive antagonist working solution was added to the cell culture plate at the 21st second.
(§4) Data processing: Raw data were obtained via ScreenWorks (version 3.1) and saved as *FMD files on the Kingsray computer network system. Data were collected and analyzed using Excel and GraphPad Prism 6 software programs. For each well, the average fluorescence intensity value from 1 to 20 seconds was used as the baseline, and the maximum fluorescence intensity value from 21 to 120 seconds minus the minimum fluorescence intensity value from 21 to 120 seconds was the relative fluorescence intensity value (ARFU), from which the percentage activation or inhibition can be calculated based on the following equation.
(§5) % Activation Rate=(ΔRFUCompound-ΔRFUBackground)/(ΔRFUAgonist control-ΔRFUBackground)×100%
(§6) The data was analyzed using GraphPad Prism 6 with a four-parameter equation to calculate the EC50 and IC50 values. The four-parameter equation was as follows: y=Bottom+(Top-Bottom)/(1+10^((LogEC50/IC50-X)*HillSlope)), wherein X is the Log value of the concentration and Y was the inhibition rate.

[2] = biological target: S1PR3 (Homo sapiens, UniProt Q99500); assay: Agonistic activity test on S1P receptors, FLIPR; type: cell-based; conditions: FLIPR agonist mode; read-out: S1PR3 EC50
Procedure: as §1, §2, §3, §4, §5, §6

Sequence of S1PR3 (Q99500 whole entry, species assumed): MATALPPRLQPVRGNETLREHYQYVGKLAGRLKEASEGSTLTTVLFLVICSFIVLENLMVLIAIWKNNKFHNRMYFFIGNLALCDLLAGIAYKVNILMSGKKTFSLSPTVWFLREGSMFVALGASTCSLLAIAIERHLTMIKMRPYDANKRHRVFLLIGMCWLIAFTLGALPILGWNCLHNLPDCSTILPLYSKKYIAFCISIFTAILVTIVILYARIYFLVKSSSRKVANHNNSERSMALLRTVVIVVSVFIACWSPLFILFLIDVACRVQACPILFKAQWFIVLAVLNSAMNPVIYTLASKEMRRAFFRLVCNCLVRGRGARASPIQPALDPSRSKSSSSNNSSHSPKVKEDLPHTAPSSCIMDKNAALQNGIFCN
T1 sequence (P21453 whole entry): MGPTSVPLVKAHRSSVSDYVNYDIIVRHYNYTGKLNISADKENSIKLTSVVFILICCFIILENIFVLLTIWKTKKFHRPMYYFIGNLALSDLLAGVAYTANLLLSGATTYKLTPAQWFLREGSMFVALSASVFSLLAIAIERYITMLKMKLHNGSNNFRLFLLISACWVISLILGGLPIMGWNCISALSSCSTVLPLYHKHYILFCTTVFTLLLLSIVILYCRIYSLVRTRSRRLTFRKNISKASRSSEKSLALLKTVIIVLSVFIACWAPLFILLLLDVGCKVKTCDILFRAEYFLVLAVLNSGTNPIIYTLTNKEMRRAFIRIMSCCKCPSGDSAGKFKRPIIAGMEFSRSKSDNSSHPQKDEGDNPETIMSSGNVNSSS

CC(C)Oc1ccc(-c2nc(-c3ccc(CN4CC(C(=O)O)C4)c4ccccc34)no2)cc1Cl [Compound A10, 1-((4-(5-(3-chloro-4-isopropoxyphenyl)-1,2,4-oxadiazol-3-yl)naphthalen-1-yl)methyl) azetidine-3-carboxylic acid hydrochloric acid]
pEC50 [1]: 6.16
pEC50 [2]: < 5.00

CC(C)Oc1ccc(-c2nc(-c3ccc(CN4CC(C(=O)O)C4)c4ccccc34)no2)cc1Br [Compound A11, 1-((4-(5-(3-bromo-4-isopropoxyphenyl)-1,2,4-oxadiazol-3-yl)naphthalen-1-yl)methyl) azetidine-3-carboxylic acid hydrochloric acid]
pEC50 [1]: 5.86
pEC50 [2]: < 5.00

CC(C)Oc1ccc(-c2nc(-c3ccc(CN4CC(C(=O)O)C4)c4ccccc34)no2)cc1C(F)(F)F [Compound A12, 1-((4-(5-(4-isopropoxy-3-(trifluoromethyl)phenyl)-1,2,4-oxadiazol-3-yl)naphthalen-1-yl)methyl) azetidine-3-carboxylic acid hydrochloric acid]
pEC50 [1]: 6.45
pEC50 [2]: < 5.00

COc1cc(-c2nc(-c3ccc(CN4CC(C(=O)O)C4)c4ccccc34)no2)ccc1OC(C)C [Compound A13, 1-((4-(5-(4-isopropoxy-3-methoxyphenyl)-1,2,4-oxadiazol-3-yl)naphthalen-1-yl)methyl) azetidine-3-carboxylic acid hydrochloric acid]
pEC50 [1]: 5.81
pEC50 [2]: < 5.00

CC(C)Oc1ccc(-c2nc(-c3ccc(CN4CC(C(=O)O)C4)c4ccccc34)no2)cc1 [Compound A14, 1-((4-(5-(4-isopropoxyphenyl)-1,2,4-oxadiazol-3-yl)naphthalen-1-yl)methyl) azetidine-3-carboxylic acid hydrochloric acid]
pEC50 [1]: 5.78
pEC50 [2]: < 5.00

CC(C)(C)Oc1ccc(-c2nc(-c3ccc(CN4CC(C(=O)O)C4)c4ccccc34)no2)cc1 [Compound A15, 1-((4-(5-(4-(tert-butoxy)phenyl)-1,2,4-oxadiazol-3-yl)naphthalen-1-yl)methyl) azetidine-3-carboxylic acid hydrochloric acid]
pEC50 [1]: 5.91
pEC50 [2]: < 5.00

COc1ccc(-c2nc(-c3ccc(CN4CC(C(=O)O)C4)c4ccccc34)no2)cc1 [Compound A16, 1-((4-(5-(4-methoxyphenyl)-1,2,4-oxadiazol-3-yl)naphthalen-1-yl)methyl) azetidine-3-carboxylic acid hydrochloric acid]
pEC50 [1]: 5.93
pEC50 [2]: < 5.00

CCCOc1ccc(-c2nc(-c3ccc(CN4CC(C(=O)O)C4)c4ccccc34)no2)cc1 [Compound A17, 1-((4-(5-(4-propoxyphenyl)-1,2,4-oxadiazol-3-yl)naphthalen-1-yl)methyl) azetidine-3-carboxylic acid hydrochloric acid]
EC50 [1]: > 10 µM
pEC50 [2]: < 5.00

O=C(O)C1CN(Cc2ccc(-c3noc(-c4ccc(OCc5ccccc5)cc4)n3)c3ccccc23)C1 [Compound A18, 1-((4-(5-(4-(benzyloxy)phenyl)-1,2,4-oxadiazol-3-yl)naphthalen-1-yl)methyl) azetidine-3-carboxylic acid hydrochloric acid]
EC50 [1]: > 10 µM
pEC50 [2]: < 5.00

O=C(O)C1CN(Cc2ccc(-c3noc(-c4ccc(OC(F)(F)F)cc4)n3)c3ccccc23)C1 [Compound A19, 1-((4-(5-(4-(trifluoromethoxy)phenyl)-1,2,4-oxadiazol-3-yl)naphthalen-1-yl)methyl) azetidine-3-carboxylic acid hydrochloric acid]
pEC50 [1]: 5.95
pEC50 [2]: < 5.00

CC(C)c1ccc(-c2nc(-c3ccc(CN4CC(C(=O)O)C4)c4ccccc34)no2)cc1 [Compound A20, 1-((4-(5-(4-isopropylphenyl)-1,2,4-oxadiazol-3-yl)naphthalen-1-yl)methyl) azetidine-3-carboxylic acid hydrochloric acid]
pEC50 [1]: 5.98
pEC50 [2]: < 5.00

CCCc1ccc(-c2nc(-c3ccc(CN4CC(C(=O)O)C4)c4ccccc34)no2)cc1 [Compound A21, 1-((4-(5-(4-propylphenyl)-1,2,4-oxadiazol-3-yl)naphthalen-1-yl)methyl) azetidine-3-carboxylic acid hydrochloric acid]
pEC50 [1]: 5.90
pEC50 [2]: < 5.00

N#Cc1ccc(-c2nc(-c3ccc(CN4CC(C(=O)O)C4)c4ccccc34)no2)cc1 [Compound A22, 1-((4-(5-(4-cyanophenyl)-1,2,4-oxadiazol-3-yl)naphthalen-1-yl)methyl) azetidine-3-carboxylic acid hydrochloric acid]
pEC50 [1]: 5.95
pEC50 [2]: < 5.00

O=C(O)C1CN(Cc2ccc(-c3noc(-c4ccc(F)cc4)n3)c3ccccc23)C1 [Compound A23, 1-((4-(5-(4-fluorophenyl)-1,2,4-oxadiazol-3-yl)naphthalen-1-yl)methyl) azetidine-3-carboxylic acid hydrochloric acid]
pEC50 [1]: 5.71
pEC50 [2]: < 5.00

N#Cc1cccc(-c2nc(-c3ccc(CN4CC(C(=O)O)C4)c4ccccc34)no2)c1 [Compound A24, 1-((4-(5-(3-cyanophenyl)-1,2,4-oxadiazol-3-yl)naphthalen-1-yl)methyl) azetidine-3-carboxylic acid hydrochloric acid]
pEC50 [1]: 6.16
pEC50 [2]: < 5.00

O=C(O)C1CN(Cc2ccc(-c3noc(-c4cccc(F)c4)n3)c3ccccc23)C1 [Compound A25, 1-((4-(5-(3-fluorophenyl)-1,2,4-oxadiazol-3-yl)naphthalen-1-yl)methyl) azetidine-3-carboxylic acid hydrochloric acid]
pEC50 [1]: 5.98
pEC50 [2]: < 5.00

O=C(O)C1CN(Cc2ccc(-c3noc(-c4ccccc4)n3)c3ccccc23)C1 [Compound A26, 1-((4-(5-phenyl-1,2,4-oxadiazol-3-yl)naphthalen-1-yl)methyl) azetidine-3-carboxylic acid hydrochloric acid]
pEC50 [1]: 6.13
pEC50 [2]: < 5.00

O=C(O)C1CN(Cc2ccc(-c3noc(-c4ccncc4)n3)c3ccccc23)C1 [Compound A27, 1-((4-(5-(pyridin-4-yl)-1,2,4-oxadiazol-3-yl)naphthalen-1-yl)methyl) azetidine-3-carboxylic acid hydrochloric acid]
EC50 [1]: > 10 µM
pEC50 [2]: < 5.00

O=C(O)C1CN(Cc2ccc(-c3noc(-c4cccnc4)n3)c3ccccc23)C1 [Compound A28, 1-((4-(5-(pyridin-3-yl)-1,2,4-oxadiazol-3-yl)naphthalen-1-yl)methyl) azetidine-3-carboxylic acid hydrochloric acid]
pEC50 [1]: 5.93
pEC50 [2]: < 5.00

O=C(O)C1CN(Cc2ccc(-c3noc(-c4ccccn4)n3)c3ccccc23)C1 [Compound A29, 1-((4-(5-(pyridin-2-yl)-1,2,4-oxadiazol-3-yl)naphthalen-1-yl)methyl) azetidine-3-carboxylic acid hydrochloric acid]
pEC50 [1]: 6.00
pEC50 [2]: < 5.00

O=C(O)C1CN(Cc2ccc(-c3noc(-c4ccc5c(c4)OCO5)n3)c3ccccc23)C1 [Compound A31]
pEC50 [1]: 5.89
pEC50 [2]: < 5.00

O=C(O)C1CN(Cc2ccc(-c3noc(-c4ccc5c(c4)OCCO5)n3)c3ccccc23)C1 [Compound A32, 1-((4-(5-(2,3-dihydrobenzo[b][1,4]dioxin-6-yl)-1,2,4-oxadiazol-3-yl)naphthalen-1-yl)methyl) azetidine-3-carboxylic acid hydrochloric acid]
pEC50 [1]: 6.21
pEC50 [2]: < 5.00
